Experimental data taken from patent publication US10227331B2 (priority 2015, dated 2019).

Legend:
[1] = tested on: P. aeruginosa expressing IMP-1, efflux− (MB9799); assay: Efflux: concentration of MBL inhibitor which restores susceptibility to imipenem; type: cell-based, Pseudomonas aeruginosa; conditions: imipenem at 2 μg/mL, in the presence of a class A, C, D serine β-lactamase inhibitor closely related to relebactam
From the text: (§1) The strain background is Pseudomonas aeruginosa PAO1.

[2] = tested on: Serratia marcescens expressing IMP-1 (CL5741); type: cell-based; conditions: with imipenem 1 μg/ml, 95% inhibition of bacterial growth; for Serratia marcescens MITC95: IMP-1 (CL5741)
Procedure: (§2) Antibiotic Potentiation Activity: Determination of Synergistic Concentration
(§3) The bacterial strains tested included the clinical strains Escherichia coli expressing NDM-1 (CLB30005, CLB30016), Serratia marcescens expressing IMP-1 (CL5741), and Klebsiella pneumoniae expressing VIM-1 (IHMA599644). Inhibitor activity was measured in the presence and absence of imipenem in a 384-well microplate.
(§4) The clinical strains CLB30016, CL5741 and IHMA599644 were grown on trypticase soy agar containing 5% sheep's blood. The bacteria on agar plates were incubated at 35° C. with humidity overnight. The following day, individual colonies from each clinical strain were picked and resuspended in 5 ml saline to attain an OD600 of […], for CLB30016, CL5741 and IHMA599644, respectively. These were further diluted 1:100 into 1.1×CAMHB and used to inoculate the test wells as described below.
(§5) Imipenem in 10 mM 3-(N-morpholino)propanesulfonic acid (MOPS, pH 7) was stored in single use aliquots at −80° C. […] On the day of the assay, 4 μl of antibiotic was added to 45 ul of bacteria followed by 1 μl of test compound and mixed by pipetting and with an orbital shaker. The concentration of antibiotic used in the assay was 1 μg/ml. Microplates were covered and incubated at 35° C. for 22 hours to 24 hours. At the end of the incubation, absorbance was determined using a spectrophotometer.
(§6) For example, in general, the compounds of Examples 1-379 were determined to restore susceptibility to imipenem for one or more of the test organisms at concentrations of 100 μM or less.

[3] = tested on: Klebsiella pneumoniae expressing VIM-1 (IHMA599644); type: cell-based; conditions: with imipenem 1 μg/ml, 95% inhibition of bacterial growth; for Klebsiella pneumoniae MITC95: VIM-1 (IHMA599644)
Procedure: as §2, §3, §4, §5, §6

[4] = tested on: Escherichia coli expressing NDM-1 (CLB30005, CLB30016); type: cell-based; conditions: with imipenem 1 μg/ml, 95% inhibition of bacterial growth; for Escherichia coli MITC95: NDM-1 (CLB30016)
Procedure: as §2, §3, §4, §5, §6

VIM-1 = VIM-1 (Pseudomonas aeruginosa (strain ATCC 15692 / DSM 22644 / CIP 104116 / JCM 14847 / LMG 12228 / 1C / PRS 101 / PAO1), UniProt A0A0F7KYQ8); assay: biochemical; conditions: CCF2-FA substrate, 2 hours at 25° C
Procedure: Enzyme Activity: Determination of IC50
The Class B enzyme activities were measured in the presence of the test inhibitor in a fluorescence assay against a commercially available substrate consisting of a cephalosporin core linking 7-hydroxycoumarin to fluorescein (CCF2-FA). […] In a 384-well microplate, the test inhibitor was incubated with the metallo-β-lactamase enzyme and the substrate for 2 hours at 25° C. […] The IC50 value was determined from semi-logarithmic plots of enzyme inhibition versus inhibitor concentration, with a curve generated using a 4-parameter fit.

[5] = tested on: P. aeruginosa expressing IMP-1, efflux+ (MB9798); type: cell-based, Pseudomonas aeruginosa; conditions: for P. aeruginosa expressing IMP-1, efflux+ (MB9798) MITC95: imipenem at 2 μg/mL, in the presence of a class A, C, D serine β-lactamase inhibitor closely related to relebactam; for Efflux ratio: ratio MITC95 PA_9798/MITC95 PA_9799
From the text: as §1

Row | SMILES | P. aeruginosa expressing IMP-1, efflux− (MB9799) MITC95 [1] [µM] | Serratia marcescens MITC95 [2] [µM] | Klebsiella pneumoniae MITC95 [3] [µM] | Escherichia coli MITC95 [4] [µM] | IC50 (VIM-1) [nM] | P. aeruginosa expressing IMP-1, efflux+ (MB9798) MITC95 [5] [µM] | Efflux ratio [5] | Serratia marcescens expressing IMP-1 (CL5741) MITC95 [2] [µM] | Klebsiella pneumoniae expressing VIM-1 (IHMA599644) MITC95 [3] [µM] | Escherichia coli expressing NDM-1 (CLB30016) MITC95 [4] [µM]
1 | NCCS(=O)(=O)c1ccc(-c2ccnc3nc(N)[nH]c23)c(-c2nnn[nH]2)c1S(N)(=O)=O [Example 303, 3-(2-amino-1H-imidazo[4,5-b]pyridin-7-yl)-6-((2-aminoethyl)sulfonyl)-2-(1H-tetrazol-5-yl)benzenesulfonamide] | 3.125 | 6.25 | 3.125 | 3.125 | 11.3 | 100 | 32.00 | – | – | –
2 | NC[C@H](O)CS(=O)(=O)c1ccc(-c2cccnc2N)c(-c2nn[nH]n2)c1S(N)(=O)=O [Example 368, (S)-6-((3-amino-2-hydroxypropyl)sulfonyl)-3-(2-aminopyridin-3-yl)-2-(2H-tetrazol-5-yl) benzenesulfonamide] | 1.172 | 0.7813 | 2.344 | 0.1953 | 0.561 | 1.563 | 1.33 | – | – | –
3 | Nc1nc2ccc(-c3ccc(S(=O)(=O)C4CCNCC4)c(S(N)(=O)=O)c3-c3nn[nH]n3)cc2[nH]1 [Example 41, 3-(2-amino-3H-benzo[d]imidazol-5-yl)-6-(piperidin-4-ylsulfonyl)-2-(2H-tetrazol-5-yl)benzenesulfonamide] | 0.7813 | – | – | – | 0.171 | 3.125 | 4.00 | 1.563 | 1.563 | 1.563
4 | NC[C@@H](O)CS(=O)(=O)c1ccc(-c2cccnc2N)c(-c2nn[nH]n2)c1S(N)(=O)=O [Example 367, (R)-6-((3-amino-2-hydroxypropyl)sulfonyl)-3-(2-aminopyridin-3-yl)-2-(2H-tetrazol-5-yl) benzenesulfonamide] | 1.563 | 0.7813 | 1.563 | 0.1953 | 0.703 | 1.563 | 1.00 | – | – | –
5 | Nc1nc2cc(F)cc(-c3ccc(S(=O)(=O)C4CNC4)c(S(N)(=O)=O)c3-c3nnn[nH]3)c2[nH]1 [Example 296, 3-(2-amino-5-fluoro-1H-benzo[d]imidazol-7-yl)-6-(azetidin-3-ylsulfonyl)-2-(1H-tetrazol-5-yl)benzenesulfonamide] | 0.7813 | 0.7813 | 1.172 | 0.5859 | 0.227 | 0.7813 | 1.00 | – | – | –
6 | NS(=O)(=O)c1c(S(=O)(=O)C2CNC2)ccc(-c2cccc3c2C(=O)NS3(=O)=O)c1-c1nn[nH]n1 [Example 249, 6-(Azetidin-3-ylsulfonyl)-3-(1,1-dioxido-3-oxo-2,3-dihydrobenzo[d]isothiazol-4-yl)-2-(2H-tetrazol-5-yl)benzenesulfonamide] | 6.25 | 6.25 | 25 | 6.25 | 0.322 | 12.5 | 2.00 | – | – | –
7 | NS(=O)(=O)c1c(S(=O)(=O)C2CNC2)ccc(-c2ccc(O)nc2)c1-c1nnn[nH]1.O=C(O)C(F)(F)F [Example 109, 3-((4-(6-hydroxypyridin-3-yl)-2-sulfamoyl-3-(1H-tetrazol-5-yl)phenyl)sulfonyl)azetidin-1-ium 2,2,2-trifluoroacetate] | 1.563 | – | – | – | 1.44 | 12.5 | 8.00 | 1.563 | 3.125 | 0.7813
